Assay results: article PMC9246869, “Allosteric inhibition of PPM1D serine/threonine phosphatase via an altered conformational state” (Nature Communications, 2022)
“And” between values parts separate entries of the source, which are not always exact repeats. Equal entries are not always repeated. Where two headings read alike, the source gives them in different places.

Tests used:
[1] = molecular target: T1, PPM1D1–420 (Homo sapiens, UniProt O15297); assay: Surface plasmon resonance (SPR); format: binding; details: for Kd: read-out: KD
T1 construct: PPM1D1–420 was PCR-amplified from the synthesized gene with BsaI sites; His(6)-SUMO (N, cleaved yes); made in house; host or cells: E. coli BL21 (DE3)
T1 sequence (O15297 1-420): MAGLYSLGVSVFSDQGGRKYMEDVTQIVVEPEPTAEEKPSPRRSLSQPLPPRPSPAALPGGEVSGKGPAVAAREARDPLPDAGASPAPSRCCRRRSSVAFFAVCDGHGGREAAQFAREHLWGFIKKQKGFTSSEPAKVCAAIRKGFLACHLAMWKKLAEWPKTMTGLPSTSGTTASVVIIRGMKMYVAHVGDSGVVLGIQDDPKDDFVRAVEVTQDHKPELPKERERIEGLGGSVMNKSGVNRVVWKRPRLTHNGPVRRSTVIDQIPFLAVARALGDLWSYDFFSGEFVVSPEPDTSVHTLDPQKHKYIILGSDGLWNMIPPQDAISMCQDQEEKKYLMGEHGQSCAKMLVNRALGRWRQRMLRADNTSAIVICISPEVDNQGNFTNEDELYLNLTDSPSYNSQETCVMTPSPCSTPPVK
Description: (§1) SPR was carried out on the Biacore S200 (GE Healthcare) using Series S sensor chip NTA (GE BR-1005-32). The preparation of the chip surface was conducted according to the manufacturer’s indications. The running buffer contained 50 mM Tris (pH 7.5), 50 mM NaCl, 1 mM MgCl2, 0.5 mM TCEP, 0.005% (v/v) P20 surfactant, and 2% DMSO. PPM1D1–420 and PPM1D∆Flap were run under single-cycle mode due to the slow-off-rate kinetics. The two proteins were immobilized on the chip surface in flow cells 2 and 3 with a signal of ~1500–2000 RU at a rate of 5 μL/min while flow cell 1 was left blank as a reference. The running buffer was injected three times followed by the GSK2830371 analyte in solution. Injections were carried out at a flow rate of 50 μL/min with the analyte in a concentration series of 5-point, 3-fold ending at 400 nM top dose. The association and dissociation phases were monitored for 90 s and 600 s, respectively. Collected data were evaluated using the Biacore S200 Evaluation Software under 1:1 binding mode. PPM1D∆Hinge was run under multi-cycle mode due to its fast-on/fast-off kinetics. The protein was immobilized to give a signal of ~ 3000 RU. GSK2830371 analyte in solution was injected at a flow rate of 90 μL/min in a 10-pt, 2-fold concentration series ending at 15 μM top dose. The association and dissociation phases were monitored for 45 s and 150 s, respectively. Since GSK2830371 had issues with solubility/aggregation at high concentrations that caused artifacts in sensorgrams, only steady-state analysis was performed to extract Kd.

[2] = molecular target: T2, PPM1DΔflap (Homo sapiens, UniProt O15297, DEL219-231/DEL235-284/E287S/S285N); assay: Surface plasmon resonance (SPR); format: binding
T2 construct: PPM1D1–218-GGSNGS-288–420 (PPM1D∆flap); His(6)-SUMO (N, cleaved yes); made in house; host or cells: E. coli BL21 (DE3)
T2 sequence (O15297 with tags, fused parts or gaps DEL219-231/DEL235-284/S285N/E287S): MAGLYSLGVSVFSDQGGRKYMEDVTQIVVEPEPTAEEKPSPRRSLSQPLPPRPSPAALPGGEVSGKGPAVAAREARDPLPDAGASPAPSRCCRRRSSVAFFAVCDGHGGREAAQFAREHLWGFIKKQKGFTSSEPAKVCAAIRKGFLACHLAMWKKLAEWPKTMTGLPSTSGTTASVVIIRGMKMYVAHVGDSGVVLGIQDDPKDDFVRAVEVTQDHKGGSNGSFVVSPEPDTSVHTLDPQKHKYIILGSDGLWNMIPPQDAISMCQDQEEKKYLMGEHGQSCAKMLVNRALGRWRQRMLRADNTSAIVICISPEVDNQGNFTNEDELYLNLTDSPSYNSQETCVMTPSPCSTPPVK
Description: as §1

[3] = molecular target: T3, PPM1DΔhinge (Homo sapiens, UniProt O15297, DEL155-163/G166S/M164G/T165G); assay: Surface plasmon resonance (SPR); format: binding
T3 construct: PPM1D1–154-GGS-167–420 (PPM1D∆hinge); His(6)-SUMO (N, cleaved yes); made in house; host or cells: E. coli BL21 (DE3)
T3 sequence (O15297 with tags, fused parts or gaps DEL155-163/M164G/T165G/G166S): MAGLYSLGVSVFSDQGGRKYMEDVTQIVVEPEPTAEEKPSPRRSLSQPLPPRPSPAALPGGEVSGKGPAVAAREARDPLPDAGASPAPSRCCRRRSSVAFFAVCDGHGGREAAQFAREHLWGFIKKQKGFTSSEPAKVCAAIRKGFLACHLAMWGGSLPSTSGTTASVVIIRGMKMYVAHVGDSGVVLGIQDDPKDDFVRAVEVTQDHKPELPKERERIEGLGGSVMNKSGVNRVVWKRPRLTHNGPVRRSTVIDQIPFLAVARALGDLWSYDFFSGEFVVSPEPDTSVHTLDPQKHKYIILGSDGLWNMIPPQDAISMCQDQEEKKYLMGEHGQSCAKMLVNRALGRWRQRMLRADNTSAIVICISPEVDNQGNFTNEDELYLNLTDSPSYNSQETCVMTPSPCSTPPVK
Description: as §1

[4] = Solubility; format: physicochemical; details: precluded ITC

**Q.** With `Cc1ncc(Cl)cc1NCc1ccc(C(=O)N[C@@H](CC2CCCC2)C(=O)NC2CC2)s1` [GSK2830371] as the molecule, how does the koff ([1]; Fig 3D, Average of 3 trials) read?
**A.** 0.00024 s⁻¹

**Q.** What about the kon ([1]; Fig 3D, Average of 3 trials) of the same molecule?
**A.** 433000 M⁻¹ s⁻¹

**Q.** And the Kd ([1]; Fig 3D, Average of 3 trials)?
**A.** 1.2 nM

**Q.** What about the koff ([1]; Fig 3D, individual trials) of the same molecule?
**A.** 0.00011 s⁻¹ and 0.00028 s⁻¹ and 0.00033 s⁻¹

**Q.** And the kon ([1]; Fig 3D, individual trials)?
**A.** 595000 M⁻¹ s⁻¹ and 343000 M⁻¹ s⁻¹ and 362000 M⁻¹ s⁻¹

**Q.** And the Kd ([1]; Fig 3D, individual trials)?
**A.** 0.8 nM and 1 nM

**Q.** What about the kon ([1]; read-out: kon (SPR), PPM1D1–420, Fig. 3D) of the same molecule?
**A.** 430000 ± 100000 M⁻¹ s⁻¹

**Q.** And the Kd ([2]; PPM1DΔflap, Fig. 6A)?
**A.** 1 nM

**Q.** And the koff ([2]; read-out: koff (SPR))?
**A.** 0.0045 s⁻¹

**Q.** And the kon ([2]; read-out: kon (SPR))?
**A.** 5e+06 M⁻¹ s⁻¹

**Q.** And the “decrease in binding affinity by SPR upon hinge deletion” value ([3]; PPM1DΔhinge versus PPM1D1–420)?
**A.** ~ 1000 fold

**Q.** And the Kd ([3]; PPM1DΔhinge, multi-cycle, steady-state analysis)?
**A.** 1000 nM

**Q.** What about the “solubility (in words)” value [4] of the same molecule?
**A.** relatively low solubility
